Test results taken from US20170304175A1, “COMPOSITION FOR INDUCING FACILITATION OF CELL REJUVENATION COMPRISING GENISTEIN OR EPIGALLOCATECHIN GALLATE” (AMOREPACIFIC CORPORATION, priority 2014, published 2017).

Tested on: melanocytes
Experiment: Observation of phenotype of melanocytes with an optical microscope
Format: cell-based, Human
Conditions: long-term exposure (1 μM in medium from passage 7 to passage 11/12), FIGS. 4A-4B
Description: Human primary melanocytes (Life Technologies, CA, USA) were cultured in a M-254 medium (Gibco BRL, NY, USA) supplemented with a human melanocyte growth supplement (HMGS; Gibco BRL, NY, USA) in a 5% CO2 incubator at […] on a 100-mm culture plate while replacing the medium every other day until the cells occupy 80% of the plate area and then subcultured on another 100-mm culture plate at a ratio of 1:4.
The melanocytes first placed on the 100-mm culture plate were considered as passage 1 (PA1) and subculturing was performed 11 times (PA12).
As a control group, melanocytes were subcultured to passage 11 and passage 12 without any treatment, and as a test group, the cells were subcultured under the same environment as the control group until passage 6, and then subcultured from passage 7 to passage 11 and passage 12 in a medium containing 1 μM genistein or epigallocatechin gallate (EGCG).

Row | Structure (SMILES) | phenotype of melanocytes of the late cell line
1 | O=c1c(-c2ccc(O)cc2)coc2cc(O)cc(O)c12 [genistein] | recovered similarly to the cells of the early stage of subculturing
2 | O=C(O[C@@H]1Cc2c(O)cc(O)cc2O[C@@H]1c1cc(O)c(O)c(O)c1)c1cc(O)c(O)c(O)c1 [epigallocatechin gallate (EGCG), epigallocatechin gallate] | recovered similarly to the cells of the early stage of subculturing
